In patent US9518041B2, “(+)-5-(3,4-difluorophenyl)-5-[(3-methyl-2-oxopyridin-1(2H)-yl)methyl]imidazolidine-2,4-dione and drug containing same” (KAKEN PHARMACEUTICAL CO., LTD., priority 2013, dated 2016) one finds IC50 data, which are given here for one molecule.

The structures appear in SMILES notation.

Common to all, as to format: biochemical
In test [1] the target is T1, human MMP-2 (Homo sapiens, UniProt P08253).
T1 construct: purchased Calbiochem 444213
T1 sequence (P08253 110-660): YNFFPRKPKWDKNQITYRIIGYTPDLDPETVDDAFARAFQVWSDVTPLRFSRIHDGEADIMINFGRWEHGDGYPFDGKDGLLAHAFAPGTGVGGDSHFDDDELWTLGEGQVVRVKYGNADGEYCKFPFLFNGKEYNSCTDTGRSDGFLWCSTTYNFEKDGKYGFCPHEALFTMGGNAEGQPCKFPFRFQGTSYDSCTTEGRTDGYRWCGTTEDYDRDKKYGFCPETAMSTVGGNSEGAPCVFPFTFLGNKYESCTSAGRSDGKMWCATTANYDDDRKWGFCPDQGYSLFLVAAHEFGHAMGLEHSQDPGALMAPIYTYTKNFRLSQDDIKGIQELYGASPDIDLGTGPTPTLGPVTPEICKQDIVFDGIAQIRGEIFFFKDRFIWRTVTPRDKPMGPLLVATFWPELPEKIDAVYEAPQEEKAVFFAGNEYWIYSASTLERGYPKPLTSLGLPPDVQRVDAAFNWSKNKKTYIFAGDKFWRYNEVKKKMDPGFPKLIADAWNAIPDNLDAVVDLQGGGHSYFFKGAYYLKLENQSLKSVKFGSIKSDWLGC
Briefly: MMP-2 inhibition test. As to conditions: read-out: Inhibitory activity (IC50, nM) MMP-2. On the procedure:
(§1) MMP inhibition tests can be carried out, for example, using a fluorescent synthetic substrate based on the methods described in Bickett et al. (D. Mark Bickett et al., Anal. Biochem., 1993, 212, 58-64) and Nagase et al. (H. Nagase et al., J. Biol. Chem., 1994, 269, 20952-20957). The method for each MMP inhibition test is shown below.
90 μL (5 ng) of human MMP-2 (Calbiochem #444213) was mixed with 10 μL of 10 mM APMA, and activated by reacting at 37° C. for 1 hour. 10 μL of the resultant enzyme solution was diluted to 90 μL with an assay buffer A. The mixture was added to 90 μL of a 20 μM fluorescent substrate (MOCAc((7-methoxycoumarin-4-yl)acetyl)-Pro-Leu-Gly-Leu-A2pr(Dnp)-Ala-Arg-NH2, Peptide Institute Inc., #3163-v) (SEQ ID NO: 3) prepared with an assay buffer B, and reacted at 37° C. for 5 hours. Enzyme activity was then determined by measuring with a fluorescence intensity meter (Labsystems, Fluoroskan Ascent) at an excitation wavelength of 320 nm and a measurement wavelength of 405 nm.
(§2) From the enzyme activity in the presence or the absence of the test substance, the inhibition rate was determined, and the 50% inhibitiory concentration (IC50) of the test substance was calculated.

Test [2] deals with T2, TACE (Homo sapiens, UniProt P78536).
T2 construct: made in house; host or cells: mammalian cells or insect cells
Briefly: TACE inhibition test (in vitro), fluorescent synthetic substrate. As to conditions: 37° C., 1.5 hours, read-out: TACE inhibitory activity, IC50 value. On the procedure: The nucleotide sequence of TACE has been reported by Moss et al. (Moss, M. L. et al., Nature 1997, 385, 733-736). Accordingly, the cDNA of TACE was obtained according to the prescribed method from THP-1 cells or the like, and then incorporated the cDNA into an expression vector. Next, this vector was transformed into mammalian cells or insect cells, and TACE expression was obtained. […]
Namely, 90 μL of an enzyme solution prepared with an assay buffer A (50 mM tris-hydrochloric acid buffer (pH 7.5) including 200 mM sodium chloride, 5 mM calcium chloride, 10 μM zinc sulfate, and 2 mg/mL bovine serum albumin) and 90 μL of a fluorescent synthetic substrate prepared with an assay buffer B (50 mM tris-hydrochloric acid buffer (pH 7.5) including 200 mM sodium chloride, 5 mM calcium chloride, 10 μM zinc sulfate, and 0.05% PLURONIC F-68) were mixed together, and reacted at 37° C. for 1.5 hours. Enzyme activity was then determined by measuring with a fluorescence intensity meter (Labsystems, Fluoroskan Ascent) at an excitation wavelength of 355 nm and a measurement wavelength of 460 nm. […]

Test [3] concerns the target T3, human MMP-17 (Homo sapiens, UniProt Q9ULZ9).
T3 sequence (Q9ULZ9 126-300 limits assumed): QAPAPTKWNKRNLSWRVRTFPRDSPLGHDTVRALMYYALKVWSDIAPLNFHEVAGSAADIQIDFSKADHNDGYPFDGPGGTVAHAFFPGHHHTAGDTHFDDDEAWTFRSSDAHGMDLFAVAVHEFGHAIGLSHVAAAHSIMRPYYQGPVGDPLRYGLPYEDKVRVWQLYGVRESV
Briefly: MMP-17 inhibition test. As to conditions: read-out: Inhibitory activity (IC50, nM) MMP-17. On the procedure: as §1
90 μL (5.8 ng) of human MMP-17 (Calbiochem #475940) prepared with an assay buffer A was added to 90 μL of a 20 μM fluorescent substrate (MOCAc-Pro-Leu-Gly-Leu-A2pr(Dnp)-Ala-Arg-NH2, Peptide Institute Inc., #3163-v) (SEQ ID NO: 3) prepared with an assay buffer B, and reacted at room temperature for 5 hours. Enzyme activity was then determined by measuring with a fluorescence intensity meter (Labsystems, Fluoroskan Ascent) at an excitation wavelength of 320 nm and a measurement wavelength of 405 nm.
From the enzyme activity in the presence or the absence of the test substance, the inhibition rate was determined, and the 50% inhibitory concentration (IC50) of the test substance was calculated.

The target in test [4] is T4, human MMP-14 (Homo sapiens, UniProt P50281).
T4 construct: purchased Calbiochem 475935
Briefly: MMP-14 inhibition test. The note with it: read-out: Inhibitory activity (IC50, nM) MMP-14. On the procedure:
as §1
90 μL (1.9 ng) of human MMP-14 (Calbiochem #475935) prepared with an assay buffer A was added to 90 μL of a 20 μM fluorescent substrate (Dnp-Pro-Cha-Gly-Cys(Me)-His-Ala-Lys(Nma)-NH2) (SEQ ID NO: 2) prepared with an assay buffer B, and reacted at 37° C. for 5 hours. Enzyme activity was then determined by measuring with a fluorescence intensity meter (Labsystems, Fluoroskan Ascent) at an excitation wavelength of 355 nm and a measurement wavelength of 460 nm.
as §2

T2 sequence (P78536 215-824): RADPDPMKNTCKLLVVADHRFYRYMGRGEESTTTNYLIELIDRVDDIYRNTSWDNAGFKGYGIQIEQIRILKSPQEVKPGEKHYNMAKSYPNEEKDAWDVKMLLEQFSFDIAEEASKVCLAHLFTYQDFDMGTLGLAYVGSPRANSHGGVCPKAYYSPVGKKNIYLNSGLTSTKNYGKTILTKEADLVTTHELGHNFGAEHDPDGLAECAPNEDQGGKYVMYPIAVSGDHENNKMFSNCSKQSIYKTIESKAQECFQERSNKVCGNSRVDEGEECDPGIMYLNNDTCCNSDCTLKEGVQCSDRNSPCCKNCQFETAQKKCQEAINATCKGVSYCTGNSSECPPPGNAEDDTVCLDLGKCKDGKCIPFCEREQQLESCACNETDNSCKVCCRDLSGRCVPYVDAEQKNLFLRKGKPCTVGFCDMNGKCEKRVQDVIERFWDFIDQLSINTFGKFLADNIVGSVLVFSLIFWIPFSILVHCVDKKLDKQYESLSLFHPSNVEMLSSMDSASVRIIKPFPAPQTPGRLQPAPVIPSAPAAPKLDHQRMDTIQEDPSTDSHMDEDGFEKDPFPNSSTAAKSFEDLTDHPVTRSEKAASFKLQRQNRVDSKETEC

Consider `Cc1cccn(CC2(c3ccc(F)c(F)c3)NC(=O)NC2=O)c1=O` (single isomer, unassigned; (+)) [(+)-5-(3,4-difluorophenyl)-5-[(3-methyl-2-oxopyridin-1(2H)-yl)methyl]imidazolidine-2,4-dione], for which the IC50 (commonly the concentration that inhibits the measured activity by half) in test [1] is over 10000 nM; in test [2] it was at most 0.1 µM; in test [3], over 10000 nM; in test [4] it was over 10000 nM.
